# Target: T1, LXRβ (Homo sapiens, UniProt P55055)
# T1 construct: Co-transfection expression plasmids, comprising full-length LXRα (pCMX-h LXRα[…] or LXRβ (pCMX-hLXRβ)); expressed in transfected cells; host or cells: CV-1 African Green Monkey Kidney Cells
# T1 sequence (P55055 1-460): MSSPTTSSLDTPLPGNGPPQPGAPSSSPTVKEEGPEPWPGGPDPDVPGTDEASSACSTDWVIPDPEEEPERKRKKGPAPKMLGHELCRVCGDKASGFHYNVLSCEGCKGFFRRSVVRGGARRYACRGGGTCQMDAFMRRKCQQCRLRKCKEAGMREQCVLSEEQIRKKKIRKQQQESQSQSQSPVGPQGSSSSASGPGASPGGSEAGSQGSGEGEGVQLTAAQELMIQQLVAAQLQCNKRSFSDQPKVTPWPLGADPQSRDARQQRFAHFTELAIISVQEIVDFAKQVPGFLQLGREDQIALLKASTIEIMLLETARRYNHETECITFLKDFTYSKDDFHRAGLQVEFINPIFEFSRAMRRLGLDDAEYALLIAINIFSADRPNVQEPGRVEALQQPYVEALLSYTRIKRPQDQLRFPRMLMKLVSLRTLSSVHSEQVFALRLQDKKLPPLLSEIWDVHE
# T1 sequence (P19793 1-462 partner): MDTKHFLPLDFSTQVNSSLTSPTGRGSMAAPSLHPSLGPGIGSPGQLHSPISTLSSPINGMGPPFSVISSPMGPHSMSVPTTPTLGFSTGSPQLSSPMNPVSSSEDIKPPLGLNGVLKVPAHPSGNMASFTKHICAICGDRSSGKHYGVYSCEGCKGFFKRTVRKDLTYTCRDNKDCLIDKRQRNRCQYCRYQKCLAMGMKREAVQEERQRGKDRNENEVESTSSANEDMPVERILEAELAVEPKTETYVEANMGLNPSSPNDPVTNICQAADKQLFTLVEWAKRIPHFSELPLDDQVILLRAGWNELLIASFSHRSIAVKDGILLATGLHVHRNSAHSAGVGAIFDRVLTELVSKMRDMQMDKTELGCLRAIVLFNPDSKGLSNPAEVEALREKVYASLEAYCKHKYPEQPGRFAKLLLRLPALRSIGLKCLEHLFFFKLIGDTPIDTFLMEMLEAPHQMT
# Assay: Co-transfection assay (LXRE luciferase reporter), LXRβ
# Assay type: cell-based
# Conditions: for EC50: CV-1 cells transfected with pCMX-hLXRβ and LXREx1-Tk-Luciferase, 20 hours incubation; for Emax: LXRβ co-transfection, relative to high control 1-(2,4-difluorobenzyl)-2-oxo-6-(4-phenoxyphenyl)-4-(trifluoromethyl)-1,2-dihydropyridine-3-carbonitrile, read-out: % Efficacy
# Procedure, shortened: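 Cell-based LXRβ agonism measured as LXRE-luciferase induction in transiently transfected CV-1 cells after 20 h treatment. Potency is the curve-fit EC50; efficacy is expressed as percent of a full-agonist control's maximal response.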
Compound,EC50 [nM],Emax [%]
"Cc1nc(-c2ccc(OC(F)(F)F)cc2)c(-c2cc(-c3cccc(S(C)(=O)=O)c3)ccc2-n2cc(C(F)(F)F)nc2C)o1 [Example 604, 2-methyl-5-(4-(2-methyl-4-(trifluoromethyl)-1H-imidazol-1-yl)-3′-(methylsulfonyl)-[1,1′-biphenyl]-3-yl)-4-(4-(trifluoromethoxy)phenyl)oxazole]",54,86
"Cc1nc(-c2ccc(Cl)cc2)c(-c2cc(-c3cccc(S(C)(=O)=O)c3)ccc2-n2cc(C(F)(F)F)nc2C)o1 [Example 605, 4-(4-chlorophenyl)-2-methyl-5-(4-(2-methyl-4-(trifluoromethyl)-1H-imidazol-1-yl)-3′-(methylsulfonyl)-[1,1′-biphenyl]-3-yl)oxazole]",91,89
"Cc1nc(-c2ccc(Cl)cc2)c(-c2cc(-c3cc(F)c(CO)c(S(C)(=O)=O)c3)ccc2-n2cc(C(F)(F)F)nc2C)o1 [Example 606, (3′-(4-(4-chlorophenyl)-2-methyloxazol-5-yl)-3-fluoro-4′-(2-methyl-4-(trifluoromethyl)-1H-imidazol-1-yl)-5-(methylsulfonyl)-[1,1′-biphenyl]-4-yl)methanol]",52,79
"Cc1nc(-c2ccc(OC(F)(F)F)cc2)c(-c2cc(-c3ccc(CO)c(S(C)(=O)=O)c3)ccc2-n2cc(C(F)(F)F)nc2C)o1 [Example 607, (3′-(2-methyl-4-(4-(trifluoromethoxy)phenyl)oxazol-5-yl)-4′-(2-methyl-4-(trifluoromethyl)-1H-imidazol-1-yl)-3-(methylsulfonyl)-[1,1′-biphenyl]-4-yl)methanol]",46,92
"Cc1nc(-c2ccc(Cl)cc2Cl)c(-c2cc(-c3cccc(S(C)(=O)=O)c3)ccc2-n2cc(C(F)(F)F)nc2C)o1 [Example 608, 4-(2,4-dichlorophenyl)-2-methyl-5-(4-(2-methyl-4-(trifluoromethyl)-1H-imidazol-1-yl)-3′-(methylsulfonyl)-[1,1′-biphenyl]-3-yl)oxazole]",90,100
"Cc1nc(-c2ccc(Cl)cc2Cl)c(-c2cc(-c3cc(F)c(CO)c(S(C)(=O)=O)c3)ccc2-n2cc(C(F)(F)F)nc2C)o1 [Example 609, (3′-(4-(2,4-dichlorophenyl)-2-methyloxazol-5-yl)-3-fluoro-4′-(2-methyl-4-(trifluoromethyl)-1H-imidazol-1-yl)-5-(methylsulfonyl)-[1,1′-biphenyl]-4-yl)methanol]",36,91
"Cc1nc(C(F)(F)F)cn1-c1ccc(-c2cccc(S(C)(=O)=O)c2)cc1-c1oc(CC(=O)O)nc1-c1ccc(OC(F)(F)F)cc1 [Example 610, 2-(5-(4-(2-methyl-4-(trifluoromethyl)-1H-imidazol-1-yl)-3′-(methylsulfonyl)-[1,1′-biphenyl]-3-yl)-4-(4-(trifluoromethoxy)phenyl)oxazol-2-yl)acetic acid]",257,94
"Cc1nc(C(F)(F)F)cn1-c1ccc(-c2cccc(S(C)(=O)=O)c2)cc1-c1oc(CCO)nc1-c1ccc(OC(F)(F)F)cc1 [Example 611, 2-(5-(4-(2-methyl-4-(trifluoromethyl)-1H-imidazol-1-yl)-3′-(methylsulfonyl)-[1,1′-biphenyl]-3-yl)-4-(4-(trifluoromethoxy)phenyl)oxazol-2-yl)ethanol]",554,62
"Cc1nc(C(F)(F)F)cn1-c1ccc(-c2cc(F)c(CO)c(S(C)(=O)=O)c2)cc1-c1oc(CCO)nc1-c1ccc(OC(F)(F)F)cc1 [Example 612, 2-(5-(3′-fluoro-4′-(hydroxymethyl)-4-(2-methyl-4-(trifluoromethyl)-1H-imidazol-1-yl)-5′-(methylsulfonyl)-[1,1′-biphenyl]-3-yl)-4-(4-(trifluoromethoxy)phenyl)oxazol-2-yl)ethanol]",517,64
"Cc1nc(C(F)(F)F)cn1-c1ccc(-c2ccc(CO)c(S(C)(=O)=O)c2)cc1-c1oc(CCO)nc1-c1ccc(OC(F)(F)F)cc1 [Example 613, 2-(5-(4′-(hydroxymethyl)-4-(2-methyl-4-(trifluoromethyl)-1H-imidazol-1-yl)-3′-(methylsulfonyl)-[1,1′-biphenyl]-3-yl)-4-(4-(trifluoromethoxy)phenyl)oxazol-2-yl)ethanol]",1160,62
"Cc1nc(-c2ccc(Cl)cc2Cl)c(-c2cc(-c3ccc(CO)c(S(C)(=O)=O)c3)ccc2-n2cc(C(F)(F)F)nc2C)o1 [Example 614, (3′-(4-(2,4-dichlorophenyl)-2-methyloxazol-5-yl)-4′-(2-methyl-4-(trifluoromethyl)-1H-imidazol-1-yl)-3-(methylsulfonyl)-[1,1′-biphenyl]-4-yl)methanol]",47,103
"Cc1nc(-c2ccc3c(c2)OC(F)(F)O3)c(-c2cc(-c3cccc(S(C)(=O)=O)c3)ccc2-n2cc(C(F)(F)F)nc2C)o1 [Example 615, 4-(2,2-difluorobenzo[d][1,3]dioxol-5-yl)-2-methyl-5-(4-(2-methyl-4-(trifluoromethyl)-1H-imidazol-1-yl)-3′-(methylsulfonyl)-[1,1′-biphenyl]-3-yl)oxazol]",31,96
"Cc1nc(-c2ccc3c(c2)OC(F)(F)O3)c(-c2cc(-c3ccc(CO)c(S(C)(=O)=O)c3)ccc2-n2cc(C(F)(F)F)nc2C)o1 [Example 616, (3′-(4-(2,2-difluorobenzo[d][1,3]dioxol-5-yl)-2-methyloxazol-5-yl)-4′-(2-methyl-4-(trifluoromethyl)-1H-imidazol-1-yl)-3-(methylsulfonyl)-[1,1′-biphenyl]-4-yl)methanol]",45,96

# Other lines, results leading:
EC50 [nM],Emax [%],Compound
37,84,"Cc1nc(-c2ccc3c(c2)OC(F)(F)O3)c(-c2cc(-c3cc(F)c(CO)c(S(C)(=O)=O)c3)ccc2-n2cc(C(F)(F)F)nc2C)o1 [Example 617, (3′-(4-(2,2-difluorobenzo[d][1,3]dioxol-5-yl)-2-methyloxazol-5-yl)-3-fluoro-4′-(2-methyl-4-(trifluoromethyl)-1H-imidazol-1-yl)-5-(methylsulfonyl)-[1,1′-biphenyl]-4-yl)methanol]"
783,66,"Cc1nc(C(F)(F)F)cn1-c1ccc(-c2cccc(S(C)(=O)=O)c2)cc1-c1oc(CCO)nc1-c1ccc(Cl)cc1 [Example 618, 2-(4-(4-chlorophenyl)-5-(4-(2-methyl-4-(trifluoromethyl)-1H-imidazol-1-yl)-3′-(methylsulfonyl)-[1,1′-biphenyl]-3-yl)oxazol-2-yl)ethanol]"
51,112,"Cc1nc(-c2ccc(OC(F)F)cc2)c(-c2cc(-c3cccc(S(C)(=O)=O)c3)ccc2-n2cc(C(F)(F)F)nc2C)o1 [Example 619, 4-(4-(difluoromethoxy)phenyl)-2-methyl-5-(4-(2-methyl-4-(trifluoromethyl)-1H-imidazol-1-yl)-3′-(methylsulfonyl)-[1,1′-biphenyl]-3-yl)oxazole]"
202,94,"Cc1nc(C(F)(F)F)cn1-c1ccc(-c2cccc(S(C)(=O)=O)c2)cc1-c1oc(CCN2CCCC2)nc1-c1ccc(OC(F)(F)F)cc1 [Example 620, 5-(4-(2-methyl-4-(trifluoromethyl)-1H-imidazol-1-yl)-3′-(methylsulfonyl)-[1,1′-biphenyl]-3-yl)-2-(2-(pyrrolidin-1-yl)ethyl)-4-(4-(trifluoromethoxy)phenyl)oxazole]"
790,81,"Cc1nc(C(F)(F)F)cn1-c1ccc(-c2cc(F)c(CO)c(S(C)(=O)=O)c2)cc1-c1oc(CCO)nc1-c1ccc2c(c1)OC(F)(F)O2 [Example 621, 2-(4-(2,2-difluorobenzo[d][1,3]dioxol-5-yl)-5-(3′-fluoro-4′-(hydroxymethyl)-4-(2-methyl-4-(trifluoromethyl)-1H-imidazol-1-yl)-5′-(methylsulfonyl)-[1,1′-biphenyl]-3-yl)oxazol-2-yl)ethanol]"
410,85,"Cc1nc(C(F)(F)F)cn1-c1ccc(-c2cccc(S(C)(=O)=O)c2)cc1-c1oc(CCO)nc1-c1ccc2c(c1)OC(F)(F)O2 [Example 622, 2-(4-(2,2-difluorobenzo[d][1,3]dioxol-5-yl)-5-(4-(2-methyl-4-(trifluoromethyl)-1H-imidazol-1-yl)-3′-(methylsulfonyl)-[1,1′-biphenyl]-3-yl)oxazol-2-yl)ethanol]"

# From patent US9834542B2, “LXR modulators” (BRISTOL-MYERS SQUIBB COMPANY, priority 2013, dated 2017)
